Experimental data from patent US10368545B2, “Substituted 2-thioimidazolylcarboxamides as pesticides” (BAYER CROPSCIENCE AKTIENGESELLSCHAFT, priority 2015, dated 2019).

Columns and labels:
[1] = tested on: larvae of the mustard beetle (Phaedon cochleariae); experiment: Contrasting example: Phaedon cochleariae spray test (PHAECO); type: in vivo; details: 500 g ai/ha, 7 dat
Description: Phaedon cochleariae—Spray Test (PHAECO)
(§1) Solvents: 78.0 parts by weight of acetone • • 1.5 parts by weight of dimethylformamide
(§2) Emulsifier: alkylaryl polyglycol ether
(§3) To produce a suitable active compound preparation, 1 part by weight of active compound is dissolved using the stated parts by weight of solvent and made up with water containing an emulsifier concentration of 1000 ppm until the desired concentration is attained. To produce further test concentrations, the preparation is diluted with emulsifier-containing water.
After the desired period of time, the efficacy in % is determined. 100% means that all beetle larvae were killed; 0% means that no beetle larvae were killed.

[2] = tested on: green peach aphid (Myzus persicae); experiment: Contrasting example: Myzus persicae spray test (MYZUPE); type: in vivo; details: MYZUPE, 100 g ai/ha, 6 dat; for pest or weed control at 100 g/ha: Myzus persicae, 144 h, read-out: % efficacy
Method in brief: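 Chinese cabbage leaf discs carrying all stages of the aphid were sprayed with compound in acetone/dimethylformamide, diluted with water containing alkylaryl polyglycol ether emulsifier. After the set period, efficacy was scored as % of aphids killed (100% = all dead, 0% = none).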

[3] = tested on: greenhouse red spider mite (Tetranychus urticae); experiment: Contrasting example: Tetranychus urticae spray test, OP resistant (TETRUR); type: in vivo; details: 500 g ai/ha, 6 dat
Description: Tetranychus urticae—Spray Test; OP Resistant (TETRUR)
as §1, §2, §3
Discs of bean leaves (Phaseolus vulgaris), infested by all stages of the greenhouse red spider mite (Tetranychus urticae) are sprayed with an active compound preparation of the desired concentration.
After the desired period of time, the efficacy in % is determined. 100% means that all spider mites were killed; 0% means that no spider mites were killed.

[4] = log P by HPLC on reversed-phase C18 columns (OECD Guideline 117); type: physicochemical; details: for logP[a]: method [a]; for logP[b]: method [b]
Method in brief: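 Reversed-phase C18 HPLC per OECD 117, LC-MS with a linear 10% to 95% acetonitrile gradient. Acidic method at pH 2.7 with 0.1% formic acid; neutral method at pH 7.8 with 0.001 M ammonium hydrogencarbonate.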

[5] = tested on: greenhouse red spider mite (Tetranychus urticae); experiment: Tetranychus urticae spray test, OP-resistant (bean leaf discs); type: in vivo; details: application rate 500 g/ha, after 6 days
Description: Tetranychus urticae—Spray Test, OP-Resistant
Solvent: 78.0 parts by weight of acetone • • 1.5 parts by weight of dimethylformamide
as §2, §3
Discs of bean leaves (Phaseolus vulgaris) infested with all stages of the greenhouse red spider mite (Tetranychus urticae) are sprayed with an active compound preparation of the desired concentration.
After 6 days, the efficacy in % is determined. 100% means that all the spider mites had been killed; 0% means that no spider mites had been killed.

[6] = tested on: green peach aphid (Myzus persicae); experiment: Myzus persicae spray test (Chinese cabbage leaf discs); type: in vivo; details: after 5 or 6 days, Chinese cabbage leaf discs
Method in brief: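 Leaf discs bearing all aphid stages are sprayed with compound dissolved in acetone/DMF and diluted with water containing 1000 ppm emulsifier. Efficacy in % is scored after 5 or 6 days: 100% means all aphids killed, 0% none killed.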

[7] = tested on: southern root-knot nematode (Meloidogyne incognita); experiment: Meloidogyne incognita test (gall formation on lettuce); type: in vivo; details: application rate 20 ppm; after 14 days
Description: Meloidogyne incognita Test
Solvent: 125.0 parts by weight of acetone
To produce a suitable preparation of active compound, 1 part by weight of active compound is mixed with the stated amount of solvent and the concentrate is diluted with water to the desired concentration.
Vessels are filled with sand, active compound solution, an egg/larvae suspension of the southern root-knot nematode (Meloidogyne incognita) and lettuce seeds. The lettuce seeds germinate and the plants develop. The galls develop on the roots.
After 14 days, the nematicidal efficacy in % is determined by the formation of galls. 100% means that no galls were found; 0% meant that the number of galls on the treated plants corresponds to the untreated control.

[8] = tested on: larvae of the mustard beetle (Phaedon cochleariae); experiment: Phaedon cochleariae spray test (Chinese cabbage leaf discs); type: in vivo; details: application rate 500 g/ha, after 7 days
Description: Phaedon cochleariae—Spray Test
as §1, §2, §3
After 7 days, the efficacy in % is determined. 100% means that all beetle larvae were killed; 0% means that no beetle larvae were killed.

[9] = tested on: green peach aphid (Myzus persicae); experiment: Myzus persicae spray test (bell pepper plants); type: in vivo; details: application rate 20 ppm, after 6 days
Description: Myzus persicae—Spray Test
Solvent: 14 parts by weight of dimethylformamide
as §2
To produce a suitable active compound preparation, 1 part by weight of active compound is dissolved using the stated parts by weight of solvent and made up with water containing an emulsifier concentration of 1000 ppm until the desired concentration is attained. To produce further test concentrations, the preparation is diluted with emulsifier-containing water. If the addition of ammonium salts and/or penetrants is required, these are each added in a concentration of 1000 ppm to the formulation solution.
Bell pepper plants (Capsicum annuum) severely infested with the green peach aphid (Myzus persicae) are treated by spraying with the active compound preparation in the desired concentration.
After 6 days, the kill in % is determined. 100% means that all of the aphids have been killed; 0% means that none of the aphids have been killed.

Compound	% efficacy [1] [%]	pest or weed control at 100 g/ha [2] [%]	% efficacy [3] [%]	logP[a] [4]	logP[b] [4]	% efficacy [2] [%]	efficacy (spider mites killed) [5] [%]	efficacy (aphids killed) ([6]; application rate 500 g/ha) [%]	nematicidal efficacy (formation of galls) [7] [%]	efficacy (beetle larvae killed) [8] [%]	efficacy (aphids killed) ([6]; application rate 100 g/ha) [%]	efficacy (kill of aphids) [9] [%]
O=C(Nc1cccnc1)c1c[nH]cn1 [Example 13]	0	0	0									
Cc1nc(C(=O)Nc2cccnc2)c[nH]1 [Example 14]	0	0	0									
CCCCCSc1ncc(C(=O)N(C)c2cccnc2)n1C [I-A-6]			90	2.03	2.33	90	90	90				
CN(C(=O)c1cnc(SCc2ccccc2)n1C)c1cccnc1 [I-A-7]				1.68	1.91	70		90	90			
CN(C(=O)c1c(Cl)nc(Sc2ncccn2)n1C)c1cccnc1 [I-A-15]	83			1.24	1.34					83		
CC(C)=CCSc1ncc(C(=O)N(C)c2cccnc2)n1C [I-A-35]				1.61	1.96				90			
CN(C(=O)c1cnc(S(=O)(=O)c2cc(Cl)cc(Cl)c2)n1C)c1cccnc1 [I-A-78]			90	2.37	2.53	90	90				90	
CN(C(=O)c1cnc([S+]([O-])c2ccc(Cl)c(C(F)(F)F)c2)n1C)c1cccnc1 (centres unmarked) [I-A-79]	100			2.16	2.29			90		100		
CN(C(=O)c1cnc(S(=O)(=O)c2ccc(Cl)c(C(F)(F)F)c2)n1C)c1cccnc1 [I-A-80]	100			2.56	2.72					100		
COc1ccc([S+]([O-])c2ncc(C(=O)N(C)c3cccnc3)n2C)cc1 (centres unmarked) [I-A-93]				1.12	1.28	70						95
CN(C(=O)c1cnc(S(=O)(=O)c2ncccn2)n1C)c1cccnc1 [I-A-99]				0.66	0.87	70						100
CN(C(=O)c1cnc(Sc2ncc(C(F)(F)F)cn2)n1C)c1cccnc1 [I-A-105]			90	1.64	1.73	100	90	100				
